Values joined by “and” are separate entries in the source; they are usually repeats but may differ in a detail not shown here. Identical values can stand only once. Inconclusive results and toxic doses are left out. The calls were made as follows: active = survival T/C of 150% or more; inactive = T/C below 125% in these data.
Tested on: P388 leukemia ip, CD2F1 mice, survival T/C
Experiment: NCI In Vivo Anticancer Drug Screen. Data for tumor model P388 Leukemia (intraperitoneal) in CD2F1 (CDF1) mice
Settings: endpoint: median survival time, higher = longer survival
Outline: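 Mice carrying the transplanted tumor received test compound or vehicle. Survival was recorded in each group, and the value is the treated-group measurement divided by that of the vehicle-treated control group.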

[1] = dose: 50.0 mg/kg/injection, schedule: Q01DX009 (ip), vehicle: Klucel (hydroxypropylcellulose) (HPC)
[2] = dose: 100.0 mg/kg/injection, schedule: Q01DX009 (ip), vehicle: Klucel (hydroxypropylcellulose) (HPC)
[3] = dose: 200.0 mg/kg/injection, schedule: Q01DX009 (ip), vehicle: Klucel (hydroxypropylcellulose) (HPC)
[4] = dose: 60.0 mg/kg/injection, schedule: Q01DX005 (ip), vehicle: saline with Tween-80
[5] = dose: 120.0 mg/kg/injection, schedule: Q01DX005 (ip), vehicle: saline with Tween-80
[6] = dose: 240.0 mg/kg/injection, schedule: Q01DX005 (ip), vehicle: saline with Tween-80
[7] = dose: 100.0 mg/kg/injection, schedule: Q04DX003 (ip), vehicle: saline
[8] = dose: 200.0 mg/kg/injection, schedule: Q04DX003 (ip), vehicle: saline
[9] = dose: 100.0 mg/kg/injection, schedule: Q01DX005 (ip), vehicle: Klucel (hydroxypropylcellulose) (HPC)
[10] = dose: 200.0 mg/kg/injection, schedule: Q01DX005 (ip), vehicle: Klucel (hydroxypropylcellulose) (HPC)
[11] = dose: 50.0 mg/kg/injection, schedule: Q01DX005 (ip), vehicle: saline with Tween-80
[12] = dose: 50.0 mg/kg/injection, schedule: Q01DX009 (ip), vehicle: saline with Tween-80
[13] = dose: 100.0 mg/kg/injection, schedule: Q01DX005 (ip), vehicle: saline with Tween-80

Measured: T/C

CC(=O)C1CCC=CC1Sc1ccccc1 (configuration not stated)
inactive: [1] 103 % of control | dose: 100.0 mg/kg/injection, schedule: Q01DX001 (ip), vehicle: saline 93 % of control | [2] 96 % of control | dose: 200.0 mg/kg/injection, schedule: Q01DX001 (ip), vehicle: saline 101 % of control | [3] 121 % of control | dose: 400.0 mg/kg/injection, schedule: Q01DX001 (ip), vehicle: saline 98 % of control

Cn1c(CC(O)c2nc3ccccc3n2C)nc2ccccc21 (configuration not stated)
inactive: [1] 98 % of control | dose: 50.0 mg/kg/injection, schedule: Q01DX009 (ip), vehicle: saline 114 % of control | [2] 105 % of control | dose: 100.0 mg/kg/injection, schedule: Q01DX009 (ip), vehicle: saline 112 % of control | [3] 98 % of control | dose: 200.0 mg/kg/injection, schedule: Q01DX009 (ip), vehicle: saline 107 % of control

Cc1ccc(OP(=O)(Oc2ccc(C)cc2)Oc2ccc(C)cc2)cc1.Cc1ccc(OP(=O)(Oc2ccc(C)cc2)Oc2ccc(C)cc2)cc1.Cc1ccc(OP(=O)(Oc2ccc(C)cc2)Oc2ccc(C)cc2)cc1.Cc1ccc(OP(=O)(Oc2ccc(C)cc2)Oc2ccc(C)cc2)cc1.[Nd+3].[O-][Cl+3]([O-])([O-])O
inactive: dose: 100.0 mg/kg/injection, schedule: Q01DX001 (ip), vehicle: Klucel (hydroxypropylcellulose) (HPC) 90 % of control | dose: 200.0 mg/kg/injection, schedule: Q01DX001 (ip), vehicle: Klucel (hydroxypropylcellulose) (HPC) 91 % of control | dose: 400.0 mg/kg/injection, schedule: Q01DX001 (ip), vehicle: Klucel (hydroxypropylcellulose) (HPC) 86 % of control

C/C=C/C[P+](c1ccccc1)(c1ccccc1)c1cccc2ccccc12
inactive: dose: 6.25 mg/kg/injection, schedule: Q04DX002 (ip), vehicle: saline with Tween-80 121 % of control | dose: 12.5 mg/kg/injection, schedule: Q04DX002 (ip), vehicle: saline with Tween-80 99 % of control | dose: 25.0 mg/kg/injection, schedule: Q04DX002 (ip), vehicle: saline with Tween-80 108 % of control

COc1ccc(N2C(=O)C(C)SC23C(=O)Nc2ccc(C)cc23)cc1 (configuration not stated)
inactive: [4] 109 % of control | [5] 102 % of control | [6] 119 % of control

CCC(C)(C)N=C(Nc1cccnc1)Nc1ncccn1
inactive: [7] 101 % of control | [8] 92 % of control

COc1cc2c(cc1C/C=C/c1cc(OC)c(OC)c(OC)c1)OCO2
inactive: [4] 93 % of control | [5] 87 % of control | [6] 86 % of control

CSCCC(N)C(=O)NCCS(=O)(=O)O (configuration not stated)
inactive: dose: 60.0 mg/kg/injection, schedule: Q01DX005 (ip), vehicle: saline 105 % of control | dose: 120.0 mg/kg/injection, schedule: Q01DX005 (ip), vehicle: saline 109 % of control | dose: 240.0 mg/kg/injection, schedule: Q01DX005 (ip), vehicle: saline 102 % of control

N#CC(C#N)=Cc1cc2c3c(c1)CCCN3CCC2
inactive: dose: 100.0 mg/kg/injection, schedule: Q01DX001 (ip), vehicle: saline with Tween-80 100 % of control | dose: 200.0 mg/kg/injection, schedule: Q01DX001 (ip), vehicle: saline with Tween-80 100 % of control | dose: 400.0 mg/kg/injection, schedule: Q01DX001 (ip), vehicle: saline with Tween-80 90 % of control

CCOC(=O)/C(C#N)=C\c1ccc(OCc2ccccc2)c(OCc2ccccc2)c1
inactive: dose: 12.5 mg/kg/injection, schedule: Q01DX005 (ip), vehicle: distilled water + alcohol 93 % of control | dose: 25.0 mg/kg/injection, schedule: Q01DX005 (ip), vehicle: distilled water + alcohol 87 % of control | dose: 50.0 mg/kg/injection, schedule: Q01DX005 (ip), vehicle: distilled water + alcohol 88 % of control | [9] 89 % of control | [10] 91 % of control

C1CN2CCN3CCCN(CCN(C1)C2)C3
inactive: dose: 12.5 mg/kg/injection, schedule: Q01DX005 (ip), vehicle: saline 102 % of control | dose: 25.0 mg/kg/injection, schedule: Q01DX005 (ip), vehicle: saline 107 % of control | [11] 101 % of control

CCN1C2=NCCN2C(=O)c2ccccc21
inactive: [1] 97 % of control | [2] 97 % of control

CC1OC(OC2C(Oc3cc(O)c4c(c3)OC(c3ccc(O)cc3)CC4=O)OC(CO)C(O)C2O)C(O)C(O)C1O (configuration not stated)
inactive: dose: 50.0 mg/kg/injection, schedule: Q01DX005 (ip), vehicle: saline 98 % of control | dose: 100.0 mg/kg/injection, schedule: Q01DX005 (ip), vehicle: saline 97 % of control | dose: 200.0 mg/kg/injection, schedule: Q01DX005 (ip), vehicle: saline 98 % of control

CC(=O)OCC1OC(N(C(C)=O)c2nc(Cl)c3cc[nH]c3n2)C(OC(C)=O)C1OC(C)=O (configuration not stated)
inactive: dose: 25.0 mg/kg/injection, schedule: Q04DX003 (ip), vehicle: other 102 % of control | dose: 50.0 mg/kg/injection, schedule: Q04DX003 (ip), vehicle: other 105 % of control | dose: 100.0 mg/kg/injection, schedule: Q04DX003 (ip), vehicle: other 105 % of control | dose: 200.0 mg/kg/injection, schedule: Q04DX003 (ip), vehicle: other 104 % of control | dose: 400.0 mg/kg/injection, schedule: Q04DX003 (ip), vehicle: other 108 % of control

COC(=O)/C=C(\C)NC(=NC(C)(C)C)c1ccccc1
inactive: [12] 98 % of control | dose: 100.0 mg/kg/injection, schedule: Q01DX009 (ip), vehicle: saline with Tween-80 101 % of control | dose: 200.0 mg/kg/injection, schedule: Q01DX009 (ip), vehicle: saline with Tween-80 94 % of control

O=C(NN=C1CCCCC1)C(=O)Nc1cccc(C(F)(F)F)c1
inactive: dose: 50.0 mg/kg/injection, schedule: Q01DX005 (ip), vehicle: Klucel (hydroxypropylcellulose) (HPC) 97 % of control | [9] 92 % of control | [10] 88 % of control

CC(C(=O)N1c2ccccc2Sc2ccccc21)[N+](C)(C)C (configuration not stated)
inactive: dose: 12.5 mg/kg/injection, schedule: Q01DX009 (ip), vehicle: saline with Tween-80 110 % of control | dose: 25.0 mg/kg/injection, schedule: Q01DX009 (ip), vehicle: saline with Tween-80 110 % of control | [12] 100 % of control

O=Cc1ccc(N2OC(c3ccc([N+](=O)[O-])cc3)C(c3ccc([N+](=O)[O-])cc3)C2c2ccc([N+](=O)[O-])cc2)cc1 (configuration not stated)
inactive: dose: 50.0 mg/kg/injection, schedule: Q01DX009 (ip), vehicle: acetone 96 % of control | dose: 100.0 mg/kg/injection, schedule: Q01DX009 (ip), vehicle: acetone 93 % of control | dose: 200.0 mg/kg/injection, schedule: Q01DX009 (ip), vehicle: acetone 100 % of control

CCN(CC)CCN(CC)c1ccccc1
inactive: [11] 105 % of control | [13] 102 % of control

CCn1c(-c2c(Cl)cc(O)cc2Cl)cc2c(Cl)cc(O)cc21
inactive: dose: 60.0 mg/kg/injection, schedule: Q01DX005 (ip), vehicle: Klucel (hydroxypropylcellulose) (HPC) 87 % of control | dose: 120.0 mg/kg/injection, schedule: Q01DX005 (ip), vehicle: Klucel (hydroxypropylcellulose) (HPC) 92 % of control

Cc1ccc2c(c1)C(=O)c1c(ccc3ccccc13)C2=O
inactive: [11] 95 % of control | [13] 100 % of control | dose: 200.0 mg/kg/injection, schedule: Q01DX005 (ip), vehicle: saline with Tween-80 104 % of control

O=C(O)c1ccc(S(=O)(=O)OCCCl)cc1
inactive: dose: 6.25 mg/kg/injection, schedule: Q01DX009 (ip), vehicle: Klucel (hydroxypropylcellulose) (HPC) 107 % of control | dose: 12.5 mg/kg/injection, schedule: Q01DX009 (ip), vehicle: Klucel (hydroxypropylcellulose) (HPC) 100 % of control | dose: 25.0 mg/kg/injection, schedule: Q01DX009 (ip), vehicle: Klucel (hydroxypropylcellulose) (HPC) 110 % of control

BrCC1(CBr)OCCO1
inactive: [12] 106 % of control

C[n+]1ccc(C(=O)O)cc1 (tested in a mixture with another compound)
inactive: [7] 104 % of control | [8] 98 % of control | dose: 400.0 mg/kg/injection, schedule: Q04DX003 (ip), vehicle: saline 98 % of control

O=C(Nc1cccc2ccccc12)ON1C(=O)c2ccccc2C1=O
inactive: dose: 25.0 mg/kg/injection, schedule: Q01DX005 (ip), vehicle: saline with Tween-80 92 % of control | [11] 99 % of control and 113 % of control and 96 % of control | [13] 110 % of control and 119 % of control

Cc1ccccc1N=Nc1c(N)ccc2ccccc12
inactive: [2] 105 % of control | [3] 111 % of control | dose: 400.0 mg/kg/injection, schedule: Q01DX009 (ip), vehicle: Klucel (hydroxypropylcellulose) (HPC) 109 % of control

Source: PubChem BioAssay AID330 (DTP/NCI, 2004)
